Drawing on patent US20220251084A1, “PROGRANULIN MODULATORS AND METHODS OF USING THE SAME” (ARKUDA THERAPEUTICS, priority 2019, published 2022), this text covers EC50 for 50 molecules.

Structures are written as SMILES.

The first test concerns progranulin (PGRN) secretion, BV-2 cells. The test can be described thus: PGRN assay: progranulin induction cellular assay (ELISA of secreted mouse PGRN). Type of test: cell-based.
Conditions: not given
An outline of the steps:
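Progranulin induction measured in BV-2 cells plated at about 80% confluence the day before, given 1 h to attach, then incubated 16 h. Secreted mouse PGRN quantified by ELISA.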
`O=C(O[C@@H]1CN2CCC1CC2)N1CCn2nnnc2C1c1ccc(F)cc1` (some centres unmarked) [Compound 2124] had an EC50 of 5340 nM. In other words, the single-digit micromolar range.
Same read-out and setting: next, `N#Cc1ccc2c(c1)[C@@H](c1ccc(F)cc1)N(C(=O)O[C@@H]1CN3CCC1CC3)CC2` [Compound 2036]: over 10000 nM; `O=C(O[C@H]1CN2CCC1(F)CC2)N1CCc2ccccc2[C@@H]1c1ccc(F)cc1` (single isomer, unassigned) [Compound 2127]: 1860 nM.
Still for that read-out and setting: under `N#Cc1ccc2c(c1)CCN(C(=O)O[C@@H]1CN3CCC1CC3)[C@@H]2c1ccc(F)cc1` [Compound 2034] stands 6070 nM.

Staying with this test, now noted: Mus musculus, BV-2.
Molecule `C#CCOc1ccc2c(c1)CCN(C(=O)O[C@@H]1CN3CCC1CC3)[C@@H]2c1ccc(F)cc1` [Compound 2083] displayed an EC50 of 6070 nM.
Still for that read-out and setting: under `CS(=O)(=O)c1ccc2c(c1)[C@H](c1ccc(F)cc1)N(C(=O)O[C@@H]1CN3CCC1CC3)CC2` [Compound 2031] stands 5750 nM; under `O=C(O[C@@H]1CN2CCC1CC2)N1CCc2ccccc2C1c1ccc2[nH]c(=O)sc2c1` (some centres unmarked) [Compound 2011], over 10000 nM; under `CS(=O)(=O)c1ccc2c(c1)[C@@H](c1ccc(F)cc1)N(C(=O)O[C@@H]1CN3CCC1CC3)CC2` [Compound 2032], over 10000 nM.

Staying with this test, now noted: Mus musculus, BV-2, PGRN assay, Table C; secreted mouse PGRN in cell culture medium, ELISA.
`C#CCOCCN1CCC(COC(=O)N2CCc3ccccc3[C@@H]2c2ccc(F)cc2)CC1` [Compound 2196, (1-(2-(prop-2-yn-1-yloxy)ethyl)piperidin-4-yl)methyl (S)-1-(4-fluorophenyl)-3,4-dihydroisoquinoline-2(1H)-carboxylate]: the EC50 was over 10000 nM.
The molecule `CN1CCC(CCOC(=O)N2CCc3ccccc3[C@@H]2c2ccc(F)cc2)CC1` [Compound 2163] came in with an EC50 of over 10000 nM.
Still for that read-out and setting: under `O=C(Nc1ccncc1)N1CCc2ccccc2[C@@H]1c1ccc(F)cc1` [Compound 2151] stands 1160 nM; under `CN1CCC(COC(=O)N2CCc3ccccc3[C@@H]2c2cc(F)cc(F)c2)CC1` [Compound 2108], over 3160 nM.
The same measure, in the same setting: under `O=C(O[C@H]1[C@@H]2CC[C@H]1CNC2)N1CCc2ccccc2[C@@H]1c1ccc(F)cc1` (single isomer, unassigned) [Compound 2102] stands 278 nM.
Same read-out and setting: next, `C#CCOc1ccc2c(c1)C(c1ccc(F)cc1)N(C(=O)OCC13CCN(CC1)CC3)CC2` (stereo in doubt) [Compound 2053, (S)-quinuclidin-4-ylmethyl 1-(4-fluorophenyl)-7-(prop-2-ynyloxy)-3,4-dihydroisoquinoline-2(1H)-carboxylate]: 5740 nM; `CS(=O)(=O)c1ccc2c(c1)[C@H](c1ccc(F)cc1)N(C(=O)N[C@@H]1CN3CCC1CC3)CC2` [Compound 2056]: over 10000 nM; `CNC(=O)c1ccc2c(c1)[C@H](c1ccc(F)cc1)N(C(=O)NCC13CCN(CC1)CC3)CC2` [Compound 2119, (S)-1-(4-fluorophenyl)-N7-methyl-N2-(quinuclidin-4-ylmethyl)-3,4-dihydroisoquinoline-2,7(1H)-dicarboxamide]: over 10000 nM.
For `C#CCOc1ccc2c(c1)CCN(C(=O)NCC13CCN(CC1)CC3)[C@H]2c1ccc(F)cc1` [Compound 2084], the EC50 was over 10000 nM.
The same measure, in the same setting: next, `C#CCOc1ccc2c(c1)CCN(C(=O)OCC13CCN(CC1)CC3)[C@@H]2c1ccc(F)cc1` [Compound 2079]: 4830 nM; `COC(=O)c1ccc2c(c1)CCN(C(=O)NCC13CCN(CC1)CC3)[C@H]2c1ccc(F)cc1` [Compound 2068]: 3370 nM; `CNC(=O)c1ccc2c(c1)CCN(C(=O)OCC13CCN(CC1)CC3)[C@@H]2c1ccc(F)cc1` [Compound 2081]: over 10000 nM.
Still for that read-out and setting: next, `O=C(C(O)[C@@H]1CN2CCC1CC2)N1CCc2ccccc2[C@@H]1c1ccc(F)cc1` (stereo partly drawn) [Compound 2074, 1-((S)-1-(4-fluorophenyl)-3,4-dihydroisoquinolin-2(1H)-yl)-2-hydroxy-2-(quinuclidin-3-yl)ethanone]: 3400 nM; `CN1CCS(=O)(=O)[C@H](CC(=O)N2CCc3ccccc3[C@@H]2c2ccc(F)cc2)C1` [Compound 2042]: 3200 nM.
Same read-out and setting: under `CN1C2CCC1[C@@H](OC(=O)N1CCc3ccccc3[C@@H]1c1ccc(F)cc1)CC2` (some centres unmarked) [Compound 2016] stands 581 nM.
The molecule `O=S(=O)(CCC12CCN(CC1)CC2)N1CCc2ccccc2[C@@H]1c1ccc(F)cc1` [Compound 2058, (S)-4-(2-(1-(4-fluorophenyl)-3,4-dihydroisoquinolin-2(1H)-ylsulfonyl)ethyl)quinuclidine] registered an EC50 of 3000 nM. Against the preceding molecule, the EC50 is about 5.2-fold higher.
`O=C(NCC12CCN(CC1)C2)N1CCc2ccccc2[C@@H]1c1ccc(F)cc1` [Compound 2193, (S)—N-((1-azabicyclo[2.2.1]heptan-4-yl)methyl)-1-(4-fluorophenyl)-3,4-dihydroisoquinoline-2(1H)-carboxamide] returned an EC50 of 2510 nM.
Same read-out and setting: next, `O=C(C[C@H]1CCCNC1)N1CCc2ccccc2[C@@H]1c1ccc(F)cc1` [Compound 2187]: 400 nM.
For `CN1CCC(COC(=O)N2CCc3ccccc3[C@@H]2c2ccc(F)cc2F)CC1` [Compound 2105], a half-maximal effect (EC50) was put at 1070 nM. This EC50 lies about 2.7-fold higher than the previous one.
Same read-out and setting: under `O=C(O[C@H]1CCCNC1)N1CCc2ccccc2[C@@H]1c1ccc(F)cc1` (single isomer, unassigned) [Compound 2168] stands 2540 nM; under `O=C(OCC1CCN(CC(F)(F)F)CC1)N1CCc2ccccc2[C@@H]1c1ccc(F)cc1` [Compound 2107], over 10000 nM.
Still for that read-out and setting: under `CS(=O)(=O)c1ccc2c(c1)CCN(C(=O)N[C@@H]1CN3CCC1CC3)[C@H]2c1ccc(F)cc1` [Compound 2040, 1-(4-fluorophenyl)-6-(methylsulfonyl)-N—((S)-quinuclidin-3-yl)-3,4-dihydroisoquinoline-2(1H)-carboxamide] stands over 10000 nM; under `Fc1ccc(C2c3ccccc3CCN2C(C[C@@H]2CN3CCC2CC3)C(F)(F)F)cc1` (single isomer, unassigned) [Compound 2132], 3070 nM.
On the same count and under the same terms, next, `CN1CCC(COC(=O)N2CCc3ccccc3[C@@H]2c2ccc(F)c(F)c2)CC1` [Compound 2138, (1-methylpiperidin-4-yl)methyl-1-(3,4-difluorophenyl)-3,4-dihydroisoquinoline-2(1H)-carboxylate]: 1210 nM; `CN(CC1CCNCC1)C(=O)N1CCc2ccccc2[C@@H]1c1ccc(F)cc1` [Compound 2182, 1-(4-fluorophenyl)-N-methyl-N-(piperidin-4-ylmethyl)-3,4-dihydroisoquinoline-2(1H)-carboxamide]: over 10000 nM.
For the molecule `O=C(O[C@@H]1CCNC1)N1CCc2ccccc2[C@@H]1c1ccc(F)cc1` [Compound 2179, (1S)—((R)-pyrrolidin-3-yl)-1-(4-fluorophenyl)-3,4-dihydroisoquinoline-2(1H)-carboxylate], it took 120 nM to reach a half-maximal effect (EC50). This lies in the sub-micromolar range.
In turn, `O=C(OCC12CCN(CC1)CC2)N1CCc2ccccc2[C@H]1c1ccc(F)c(F)c1` [Compound 2111] had an EC50 of 635 nM.
Still for that read-out and setting: next, `O=C(CCC12CCN(CC1)CC2)N1CCc2ccccc2[C@@H]1c1ccc(F)cc1` [Compound 2037]: over 8090 nM.

Still in this test, the particulars now being: Mus musculus, BV-2, PGRN assay, Table D; secreted mouse PGRN in cell culture medium, ELISA.
The molecule `CN(C(=O)N1CCc2ccccc2[C@@H]1c1ccc(F)cc1)[C@H]1CNCC1(F)F` [Compound 2297, (S)—N—((S)-4,4-difluoropyrrolidin-3-yl)-1-(4-fluorophenyl)-N-methyl-3,4-dihydroisoquinoline-2(1H)-carboxamide] had an EC50 of over 10000 nM.
On the same count and under the same terms, under `O=C(NC[C@H]1CCCNC1)N1CCc2ccccc2[C@@H]1c1ccc(F)cc1` (single isomer, unassigned) [Compound 2220] stands 5500 nM; under `O=C(N[C@H]1CNC[C@H]1F)N1CCc2ccccc2[C@@H]1c1ccc(F)cc1` [Compound 2352], 125 nM.
Regarding `O=C(N[C@@H]1CNC[C@H]1F)N1CCc2ccccc2[C@@H]1c1ccc(F)cc1` [Compound 2360], the EC50 stood at 148 nM.
Consider `CN1C[C@H](NC(=O)N2CCc3ccccc3[C@H]2c2ccc(F)cc2)C2(CC2)C1` [Compound 2316], for which a half-maximal effect (EC50) was put at 453 nM.
`CN1CC[C@H](NC(=O)N2CCc3ccccc3[C@@H]2c2ccc(F)cc2)C1` [Compound 2237, (S)-1-(4-fluorophenyl)-N—((S)-1-methylpyrrolidin-3-yl)-3,4-dihydroisoquinoline-2(1H)-carboxamide]: a half-maximal response (EC50) required 430 nM.
On the same count and under the same terms, under `CN1CC(CNC(=O)N2CCc3ccccc3[C@@H]2c2ccc(F)cc2)C1` [Compound 2282] stands over 10000 nM; under `O=C(N[C@H]1CNC[C@@H]1F)N1CCc2ccccc2[C@@H]1c1ccc(F)cc1` [Compound 2351, (S)-1-(4-fluorophenyl)-N-((3S,4S)-4-fluoropyrrolidin-3-yl)-3,4-dihydroisoquinoline-2(1H)-carboxamide], 130 nM.
Same read-out and setting: next, `O=C(N1CC[C@@]2(CNCCO2)C1)N1CCc2ccccc2[C@@H]1c1ccc(F)cc1` (single isomer, unassigned) [Compound 2324]: 742 nM; `O=C(N[C@H]1CNCCOC1)N1CCc2ccccc2[C@H]1c1ccc(F)cc1` (single isomer, unassigned) [Compound 2278]: 439 nM.
On the same count and under the same terms, under `CN1CCCN(C(=O)N2CCc3ccccc3[C@@H]2c2ccc(F)cc2)CC1` [Compound 2269, (S)-(1-(4-fluorophenyl)-3,4-dihydroisoquinolin-2(1H)-yl)(4-methyl-1,4-diazepan-1-yl)methanone] stands 656 nM.
`O=C(N[C@H]1CCNC1)N1CCc2ccccc2[C@@H]1c1ccc(F)cc1` [Compound 2222] yielded an EC50 of 940 nM.
On the same count and under the same terms, under `O=C(O[C@H]1CNCC1(F)F)N1CCc2ccccc2[C@@H]1c1ccc(F)cc1` [Compound 2241] stands 8790 nM.

Staying with this test, now noted: PGRN assay, Table D; secreted mouse PGRN in cell culture medium, ELISA.
Regarding `O=C(N[C@H]1CNCCOC1)N1CCc2ccccc2[C@@H]1c1ccc(F)cc1` (single isomer, unassigned) [Compound 2275], the EC50 turned out to be 447 nM.

For orientation: EC50 means the concentration that produces a half-maximal response. A lower EC50 goes with higher potency in that assay.
